One experiment concerns Botrytis cinerea. Put plainly: Effect test on cucumber gray mold (cucumber cotyledons, paper disc). It is filed as in vivo. To be noted: 20° C., 4 days. The method, then:
Cotyledons were harvested from cucumbers (variety: Hikari No. 3 P-type) that had been grown in a greenhouse for 3 weeks in a plastic pot having a diameter of 6 cm. The harvested cotyledons were placed side by side in a Tupperware container in which wetted filter paper was laid, and a paper disc having a diameter of 8 mm was placed on the center of each of the cotyledons. To each paper disc, 50 μL of a suspension of Botrytis cinerea spores (2×10^4/ml, containing 2% of sucrose and 0.2% of a yeast extract) was added, and at the same time, 50 μL of a phosphate buffer (40 mM, pH 7.2) having dissolved therein each wettable powder prepared in Formulation Example 1 at a target concentration was added. A lid was placed on the Tupperware container, which was kept at 20° C. for 4 days. After that, diseased areas were investigated with eyes to determine a preventive value. The preventive value (%) was calculated using the following equation. Preventive value=(1−(diameter of infection zone in leaf with test compound/diameter of infection zone in control leaf))×100

The test system of the next experiment is cucumber powdery mildew. Put plainly: Effect test on cucumber powdery mildew (potted cucumbers, spray). In kind it is in vivo. The following applies: 10 days after inoculation. An excerpt:
A sufficient amount of a dilute solution of each wettable powder prepared in Formulation Example 1 was spread with a spray gun on cucumbers (variety: Hikari No. 3 P-type) that had been grown in a greenhouse to the third-leaf unfolding stage in a plastic pot having a diameter of 6 cm. The next day, the cucumbers were inoculated with a suspension of cucumber powdery mildew spores by misting. The cucumbers were allowed to stand in the greenhouse for 10 days, and diseased area ratios in the first leaf and the second leaf (first and second leaves from the ground) were investigated with eyes to determine a preventive value. The preventive value (%) was calculated using the following equation. Preventive value=(1−(ratio of infection zone in leaf with test compound/ratio of infection zone in control leaf))×100

The values below come from patent US10412963B2, “Agricultural and horticultural fungicide composition and plant disease controlling method” (SDS BIOTECH K.K., priority 2016, dated 2019).

For the molecule `C[C@@H](N)C(=O)N[C@H]1COC(O)[C@H](N)[C@H]1O` (stereo partly drawn) [Prumycin, 4-N-D-alanyl-2,4-diamino-2,4-dideoxyarabinose], the “Preventive value (%)” value in the experiment on Botrytis cinerea (single chemical 0.5 ppm) is 6%; in the experiment on Botrytis cinerea (single chemical 1 ppm) it was 45%; in the experiment with Botrytis cinerea (single chemical 2 ppm), 55%; in the experiment with Botrytis cinerea (single chemical 5 ppm), 95%; in the experiment on Botrytis cinerea (single chemical 10 ppm) it was 100%; in the experiment on cucumber powdery mildew (single chemical 0.5 ppm) it was 7%. Also, the “Preventive value (%)” value in the experiment with cucumber powdery mildew (single chemical 1 ppm) is on record as 21%; in the experiment on cucumber powdery mildew (single chemical 2 ppm), 44%; in the experiment with cucumber powdery mildew (single chemical 5 ppm), 69%; in the experiment on cucumber powdery mildew (single chemical 10 ppm), 95%.
Turning to iso-C14 [Ile^7]surfactin, the “Preventive value (%)” value in the experiment on Botrytis cinerea (single chemical 1 ppm), in the experiment on Botrytis cinerea (single chemical 10 ppm), in the experiment with cucumber powdery mildew (single chemical 1 ppm) and in the experiment with cucumber powdery mildew (single chemical 10 ppm) was 0% in each case.
For the molecule surfactin, the “Preventive value (%)” value with Botrytis cinerea (single chemical 1 ppm), in the experiment with Botrytis cinerea (single chemical 10 ppm), with cucumber powdery mildew (single chemical 1 ppm) and with cucumber powdery mildew (single chemical 10 ppm) was 0% in each case.
